One assay has as its system T-cells. The assay is described as follows: 3-days T-cell proliferation assay (3H-thymidine) after three rounds of in vitro stimulation of PBMC bulk cultures with RAS peptides. It counts as cell-based, human. Conditions: bulk cultures stimulated three rounds with TG02 + 13R, 10 μM peptide. The procedure:
In this example, Buffy coats were collected from 4 normal human donors (Buffy 1, Buffy 2, Buffy 3, and Buffy 4) and were cultured in vitro. The in vitro PBMCs were stimulated with a single RAS peptide or a mixture of RAS peptides, and T-cell proliferation assays performed.
The procedure must be performed at room temperature until point 5. All handling of cells in the open is done in a vertical laminar flow hood. • 1. Rapidly transfer the vials, each vial with frozen PBMC from a buffy coat (Buffy 1, Buffy 2, Buffy 3, and Buffy 4), to a water bath at 37° C. • 2. Shake the vials manually at regular intervals (approx. 2-3 min.) and remove them from the water bath while some ice is still present. • 3. When all the ice is melted, transfer 1 ml of CellGro DC medium drop-wise to the cell suspension. • 4. Transfer the cell suspension to a 50 ml tube containing 20 ml of CellGro DC medium. • 5. Centrifuge cells at 500G for 5 min at room temperature. • 6. Resuspend the cells in 5 ml CellGro DC medium. • 7. Count the number of viable cells using a Burker chamber or KOVA Galsstic slides and adjust the cell concentration to 2×10^6 cells/ml in complete CellGro DC medium (see recipe). Total cell numbers: Buffy 1-45×10^6, Buffy 2-27.5×10^6, Buffy 3-40.5×10^6, and Buffy 4-40.5×10^6 cells.
b. Bulk cultures for increasing number of RAS peptide reactive T-cells • 1. […]

The next assay deals with any RAS mutation. Conditions: cited from earlier work.

Where “and” joins values, the source holds several entries; their conditions need not be identical. Equal entries are not always repeated.

As for “KLVVVGAGCVGKSALTI (listed as Homo sapiens) [13C, RAS peptide of the peptide mixture having a G13C mutation]”, the “Counts per minute (CPM), APC + T-cell + 13 C” value in the assay on T-cells (Donor #3, single replicates) is 27813 CPM and 32522 CPM and 28869 CPM. Moreover, the “Mean counts per minute (CPM), APC + T-cell + 13 C” value in the assay with T-cells (Mean Donor #3) was 29735 CPM.

“paitumumab-FOLFOX4: panitumumab (printed paitumumab) in combination with FOLFOX4 chemotherapy”: the “Outcome of treatment in patients having any RAS mutation” value with any RAS mutation is on record as “may even be harmed”.

The values are drawn from patent publication US20190374628A1, “MUTATED FRAGMENTS OF THE RAS PROTEIN” (Targovax ASA, priority 2015, published 2019).
